Measurements published in US20170045513A1, “METHODS OF DIAGNOSING CELIAC DISEASE USING IP-10” (ImmusanT, Inc., priority 2014, published 2017).
Non-standard residues stand in square brackets, D forms with d. pGlu = O=C1CC[C@@H](C(=O)O)N1

Experiments:
Assay type in all cases: cell-based, human
[1] = test system: gluten-reactive T cells; assay: Cytokine release assays taken together (IFNγ ELISpot, whole blood IFNγ and IP-10, in-tube IFNγ ELISA); conditions: HLA-DQ2.5+ celiac disease subjects after gluten challenge
Method: Gluten peptide solutions for addition to whole blood were arranged according to standardized templates in sterile 96-well U-bottom plates (30 μL/well). Plates were sealed with adhesive ELISA plate cover slips before the plastic lid was replaced and being frozen at −80° C. Whole blood assay (WBA) “medium” (1% DMSO in 90% PBS and 9% normal saline), mitogen (PHA-L, Sigma-Aldrich #L2769; St Louis Mo.) 100 μg/ml in WBA medium, and CEF diluted to 10 μg/ml in PBS with a final concentration of 1% DMSO were frozen separately in sterile cryovials. 96-well plates and cryovials with frozen incubation solutions were shipped on dry ice to the clinical site where blood was collected and incubations performed. Solutions were thawed at room temperature for 10 min just before being added to whole blood. 96-well plates were thawed while being centrifuged at 300 g to avoid surface condensation. A multi-channel pipette was used to efficiently transfer 25 μL of peptide solutions from the original 96-well plate to corresponding wells in a fresh sterile 96-well U-bottom plate. Once incubation solutions had been added, 225 μL of whole blood was added to each well and the plate transferred to incubate for 24 h at 37° C. 5% CO2. […] Individual peptides were incubated at a final assay concentration of 51.1M. Final concentrations of individual peptides assessed in P3 was 0.05-50 μg/mL, and in P14 and P13 pools 0.025-25 μM. The P71 pool was tested at between 0.005-10 pg/mL, the highest tested concentration being the maximal possible not exceeding 0.1% DMSO. Peptide pools, mitogen, and medium only were assessed in triplicate wells, and on Day-6 individual peptides were assessed in duplicate wells. Incubations were terminated after 24 h, and 96-well plates centrifuged at 300 g for 10 min. A total of approximately 90 to 120 μL of plasma was removed from each well taking care to avoid red cell contamination, and transferred into corresponding wells of two further 96-well plates (one with 30 μL/well and the residual in the second plate). Plasmas were frozen at −80° C. and later shipped on dry ice to the central lab where IP-10 and IFNγ multiplex bead assays were performed according to manufacturer's instructions using 25 μL plasma per well (Milliplex® MAP Human Cytokine/Chemokine Magnetic Bead Panel #HCYTOMAG-60k-02; EMD Millipore Corp., Billerica, Mass. 01821) and analysed with the Luminex® MAGPIX® System xPONENT® software (Luminex Corporation, Austin Tex. 78727). Plasma cytokine levels for each assay condition were expressed as the mean analyte concentration of each of the three replicate incubations. Laboratory staff were unaware of the arrangement of peptide solutions incubated with during assay setup and plate counting.
Aliquots of PBS, P3 peptides diluted in PBS (final concentration in blood 3× 50 or CEF to a final concentration 1 μg/mL were prepared in sterile cryovials (0.11 mL/vial) and stored frozen (−80° C.) until immediately before use. P3, CEF and two PBS aliquots were drawn up in separate sterile 0.3 mL insulin syringes with attached 29G×½″ needle (Terumo, SS*30M2913; Elkton Md. 21921). P3, CEF and one PBS aliquot was injected through the stoppers of three separate QuantiFERON® NIL tubes already containing 1 mL blood, and one aliquot of PBS was injected into a QuantiFERON® MITOGEN tube already containing 1 mL blood. All four tubes containing blood and incubation solution were gently inverted ten-times and transferred to incubate at 37° C. 5% CO2. After for 24 h, tubes were centrifuged 300 g 10 min. Plasma was separated and equal volumes placed in two 1.5 mL cryovials. Frozen plasmas were transferred to the central lab where IFNγ levels were measured in triplicate 50 μL samples by ELISA (MABtech Human IFN-γ ELISA development kit HRP, 3420-1H-6; capture mAb 1-D1K). […]

[2] = test system: gluten-reactive T cells; assay: 96-well plate whole blood cytokine release, IP-10 by MAGPIX multiplex bead assay; conditions: for Percent of maximal response to individual gluten peptides, IP-10: after oral gluten challenge
[3] = test system: gluten-reactive T cells; assay: Overnight IFNγ ELISpot assay with fresh PBMC; conditions: for Percent of maximal response to individual gluten peptides, ELISp: after oral gluten challenge
Method: HLA-DQ2.5-positive celiac disease subjects on gluten-free diet were used in this study. Blood was collected immediately before and 6 days after commencing 3-day oral gluten challenge. Whole blood or PBMCs were incubated with pools or single peptides derived from gluten or recall antigens. IFNγ and IP-10 levels were measured in plasma from the whole blood that was incubated in 96-well plates with peptides or peptide pools. Plasma cytokine/chemokine levels were measured by MAGPIX® multiplex bead assay (IFNγ and IP-10) or by ELISA (IFNγ and IP-10), and PBMC separated from the same blood sample were incubated in overnight IFNγ ELISpot assays.
Overnight IFNγ ELISpot assays (Human IFN-γ ELISpotPRO kit, transparent, ALP; Mabtech AB, #3420-2APT-10) were performed using PBMC freshly separated from heparinized blood diluted 1:1 in PBS with 2% fetal bovine serum (Stemcell Technologies #07905; Vancouver, BC, V5Z 1B3, Canada) overlaid on density gradient medium (Ficoll-Paque™ PLUS; GE Healthcare Lice Sciences #:17-1440-02) in SepMate™-50 tubes (Stemcell Technologies #15460). PBMC (8 million/mL) were resuspended in serum-free medium with gentamicin and phenol red (X-VIVO™15; Lonza, Walkersville Mass. 21793). PBMC (0.4 million/50 pt/well) and incubated with 50 μL 80% X-vivo15, 0.2% DMSO and 20% PBS in three triplicate wells (“medium only”), or with 50 μL PHA-L 20 μg/ml or peptide at 2× final concentration in 80% X-vivo15, 0.2% DMSO and 20% PBS. Peptide solutions to be added to individual ELISpot wells were prepared in 96-well U-bottom plates (60 pt/well) that were then sealed with adhesive ELISA plate cover slips before replacing the plastic lid and being frozen at −80° C. 96-well plates containing peptide solutions were thawed at room temperature for 10 min while being centrifuged at 300 g immediately prior to being added to ELISpot wells. Peptide pools and mitogen were assessed in triplicate wells, and individual peptides were assessed in duplicate wells. X-VIVO™15 (50 μL) was incubated with 80% X-vivo15, 0.2% DMSO and 20% PBS (50 μL) in triplicate wells (“no PBMC” control). A Zeiss automated ELISpot counter was used to determine spot forming units (SFU) per well (Zellnet Inc., Fort Lee, N J 07024). Laboratory staff were unaware of the arrangement of peptide solutions in ELISpot wells during assay setup and plate counting.

[4] = test system: gluten-reactive T cells; assay: 96-well plate whole blood cytokine release, IFNγ by MAGPIX multiplex bead assay; conditions: for Percent of maximal response to individual gluten peptides, IFNg: after oral gluten challenge

Substance: (pE)QPFPEQPEQIIPQQP-amide ([pGlu]QPFPEQPEQIIPQQP-NH2; SMILES CC[C@H](C)[C@H](NC(=O)[C@H](CCC(N)=O)NC(=O)[C@H](CCC(=O)O)NC(=O)[C@@H]1CCCN1C(=O)[C@H](CCC(N)=O)NC(=O)[C@H](CCC(=O)O)NC(=O)[C@@H]1CCCN1C(=O)[C@H](Cc1ccccc1)NC(=O)[C@@H]1CCCN1C(=O)[C@H](CCC(N)=O)NC(=O)[C@@H]1CCC(=O)N1)C(=O)N[C@H](C(=O)N1CCC[C@H]1C(=O)N[C@@H](CCC(N)=O)C(=O)N[C@@H](CCC(N)=O)C(=O)N1CCC[C@H]1C(N)=O)[C@@H](C)CC) [Peptide 12]
- cytokine release / immunogenicity of individual peptide [1]: weak or absent
- Percent of maximal response to individual gluten peptides, IP-10 ([2]; Subject 1, Max. 2331 pg/mL): 11 % of max
- Percent of maximal response to individual gluten peptides, IP-10 ([2]; Subject 2, Max. 3646 pg/mL): 3 % of max
- Percent of maximal response to individual gluten peptides, IP-10 ([2]; Subject 3, Max. 9492 pg/mL): 9 % of max
- Percent of maximal response to individual gluten peptides, IP-10 ([2]; Subject 4, Max. 9463 pg/mL): 5 % of max
- Percent of maximal response to individual gluten peptides, IP-10 ([2]; Subject 5, Max. 9336 pg/mL): 4 % of max
- Percent of maximal response to individual gluten peptides, IP-10 ([2]; Subject 6, Max. 5863 pg/mL): 0 % of max
- Percent of maximal response to individual gluten peptides, IP-10 ([2]; Subject 7, Max. 2330 pg/mL): 0 % of max
- Percent of maximal response to individual gluten peptides, IP-10 ([2]; Subject 8, Max. 4019 pg/mL): 0 % of max
- Percent of maximal response to individual gluten peptides, IP-10 ([2]; Subject 9, Max. 8349 pg/mL): 1 % of max
- Percent of maximal response to individual gluten peptides, IP-10 ([2]; Subject 10, Max. 8922 pg/mL): 0 % of max
- IP-10 WB MAGPIX % max Mean ([2]; n = 10, blood after oral gluten challenge, individual peptides 5 μM (Peptide 2* of P14, Pepscan: 10 μg/mL (5.45 μM))): 3 % max
- Percent of maximal response to individual gluten peptides, ELISp ([3]; Subject 3, Max. 18 SFU): 6 % of max
- Percent of maximal response to individual gluten peptides, ELISp ([3]; Subject 4, Max. 36 SFU): 0 % of max
- Percent of maximal response to individual gluten peptides, ELISp ([3]; Subject 8, Max. 17 SFU): 6 % of max
- Percent of maximal response to individual gluten peptides, ELISp ([3]; Subject 10, Max. 11 SFU): 0 % of max
- IFNγ ELISpot % max Mean ([3]; n = 5, blood after oral gluten challenge, individual peptides 5 μM (Peptide 2* of P14, Pepscan: 10 μg/mL (5.45 μM))): 3 % max
- Percent of maximal response to individual gluten peptides, IFNg ([4]; Subject 2, Max. 116 pg/mL): 13 % of max
- Percent of maximal response to individual gluten peptides, IFNg ([4]; Subject 3, Max. 799 pg/mL): 0 % of max
- Percent of maximal response to individual gluten peptides, IFNg ([4]; Subject 4, Max. 136 pg/mL): 0 % of max
- Percent of maximal response to individual gluten peptides, IFNg ([4]; Subject 6, Max. 72 pg/mL): 0 % of max
- Percent of maximal response to individual gluten peptides, IFNg ([4]; Subject 7, Max. 17 pg/mL): 0 % of max
- Percent of maximal response to individual gluten peptides, IFNg ([4]; Subject 8, Max. 47 pg/mL): 0 % of max
- Percent of maximal response to individual gluten peptides, IFNg ([4]; Subject 9, Max. 67 pg/mL): 0 % of max
- Percent of maximal response to individual gluten peptides, IFNg ([4]; Subject 10, Max. 229 pg/mL): 1 % of max
- IFNγ WB MAGPIX % max Mean ([4]; n = 8, blood after oral gluten challenge, individual peptides 5 μM (Peptide 2* of P14, Pepscan: 10 μg/mL (5.45 μM))): 2 % max
